Patent US20070037887A1, “Blockade of mtor to prevent a hormonal adaptive response” (University of Virginia Patent Foundation, priority 2003, published 2007)

Experiments:
[1] = test system: ERK1/2, Akt, p70S6K, PHAS-1 phosphorylation in LTED cells; test: EGF induced activation of MAP kinase, PI3 kinase and mTOR in LTED cells (Western); format: cell-based, human; details: pretreatment FTS 1 h, LY 294002 or rapamycin 3 h; EGF 1 μg/ml 1 h
Source text: FIG. 8 represents data showing the effect of FTS on EGF induced activation of MAP kinase, PI3 kinase, and mTOR in LTED cells. […] Cells were then harvested and cell lysate prepared. Phosphorylated and total kinases were detected by Western analysis using specific antibodies.
The effects of the specific growth factors, EFG and IGF-1 were also examined. Serum contains multiple growth factors that activate MAP kinase and PI3 kinase either by recruitment and activation of the common mediator Ras (such as EGF) or through a direct mechanism (such as IGF-1). To further explore the site of action of FTS, EGF-induced activation of MAPK and PI3 kinase was first examined. Specific inhibitors for PI3 kinase and mammalian target of rapamycin (mTOR) were included for comparison. […] One-hour treatment was chosen as the time point allowing most efficient comparisons among molecules.

MCF-7 cells [2] = test: [3H] thymidine incorporation into DNA, MCF-7 cells; format: cell-based, human; details: Estradiol 10^−10 M
Protocol: (§1) FIGS. 5A & 5B represent the effect of FTS on DNA synthesis in MCF-7 (FIG. 5A) and LTED (FIG. 5B) cells. One hundred thousand cells were plated into each well of 24-well plates. Two days later, the cells were re-fed with IMEM containing 5% DCC-FBS. After another two days, cells were treated in quadruplicate with the compounds indicated for 18 hours. [^3H] thymidine (1 μCi/well) was added during the last 2 h of incubation. [^3H] thymidine incorporated into DNA was normalized by protein content.
(§2) The inhibitory effect of FTS on cell growth may be the result of inhibition of cellular proliferation, induction of apoptosis, or both. To determine the mechanism by which FTS inhibits cell growth, FTS's effect on DNA synthesis and apoptosis was investigated. […] Estradiol (10^−10 M) increased [^3H] thymidine incorporation by 2.6 fold compared to the control level in MCF-7 cells.

MCF-7 cells [3] = test: Growth of MCF-7 cells (cell number); format: cell-based, human; details: E2 10^−10 M, five-day treatment
Protocol: FIG. 3 represents the effect of FTS on the growth of MCF-7, LTED, and MCF-10A cells. Sixty thousand cells were plated into each well of 6-well plates. Two days later, the cells were treated in triplicate for five days with FTS at indicated concentrations. The results (mean±S.E.) are expressed as percentage of the vehicle control.
FIG. 4 represents the effect of FTS on E2 stimulated growth of MCF-7 and LTED cells. Thirty thousand cells were plated into each well of 6-well plates. Two days later, the cells were re-fed with IMEM containing 5% DCC-FBS. After another two days, cells were treated in triplicate with estradiol (10^−10 M) plus various concentrations of FTS for five days. In LTED cells, fulvestrant (10^−9 M) was included in all wells to block the effect of residual estrogen in the culture. The results (mean±S.E.) are expressed as percentage of cell number from the wells containing E2.
The effect of FTS on growth of breast cancer cells was examined in two different cell lines: MCF-7 wild type cells which represent a model for untreated breast cancer and LTED cells as a model of cells adapting to endocrine treatment. Cells were grown in their culture media and treated with FTS for five days. […] The effect of FTS on E2-stimulated growth of MCF-7 and LTED cells was the examined. Five-day treatment of MCF-7 cells with E2 (10^−10 M) increased cell number by 8-fold compared with the vehicle control. Addition of FTS reduced cell number in a dose-dependent manner with about 50% inhibition at the concentration of 50 μM […]. […] The extent of inhibition of E2-stimulated cell growth by FTS was similar in these two cell lines.

MAP kinase = MAP kinase activation in LTED cells; format: cell-based, human
Protocol: Upregulation of MAP kinase and PI-3-kinase could reflect either a constitutive activation of growth factor receptors, an increase in the endogenous secretion of growth factors, or other mechanisms. Inhibition of MAP kinase with a pure antiestrogen would rule out the possibility of constitutive activation of growth factor receptors or growth factor secretion. Accordingly, the pure anti-estrogen, faslodex (fulvestrant) was administered and the level of activation of MAP kinase in LTED cells was examined.
Estrogen deprivation might trigger activation of a non-genomic, estrogen regulated, MAP kinase pathway which utilizes Shc. […] The addition of E2 stimulated MAP kinase phosphorylation in LTED cells within minutes. The increased MAP kinase phosphorylation by E2 was time and dose-dependent being greatly stimulated at 15 min and remaining elevated for at least 30 min. Maximal stimulation of MAP kinase phosphorylation was at 10^−10 M of E2.

LTED cells = test: [3H] thymidine incorporation into DNA, LTED cells; format: cell-based, human; details: inhibitors of the MAP kinase pathway
Protocol: as §1, §2

MCF-7 cells [4] = test: Estradiol dose response of growth, wild type MCF-7 cells; format: cell-based, human; details: TGF alpha 10 ng/ml
Protocol: As further evidence of the role of MAP kinase, PD 98059 was administered to LTED cells and its effect on level of sensitivity to estradiol was examined.
To investigate whether the MAP and P13 kinase pathways have a role in estradiol induced cell proliferation, the following experiments were conducted. […] Blockade of this effect was obtained with the MAPK inhibitor PD98059. Administration of TGF at a dose of 10 ng/ml caused a 2-log shift to the left in the ability of estradiol to stimulate the growth of wild-type MCF-7 cells. […] Dual inhibition of PI3K with LY40029 and MAPK with U0126 shifted the level of sensitivity to estradiol more dramatically, by more than 2 logs to the right. On the basis of these observations, it is believed that adaptive hypersensitivity involves the joint activation of the PI3K and MAPK pathways.

mTOR-raptor complex = test: Coimmunoprecipitation of raptor with mTOR from 293T cells incubated with compound; format: cell-based; details: 293T cells incubated with 200 μM
Protocol: FIG. 11A & 11B represent data showing FTS inhibits PHAS-I phosphorylation and promotes dissociation of the mTOR-raptor complex in 293T cells. 293T cells were transfected with pcDNA3AU1-mTOR, pcDNA33HARaptor, pcDNA33HA-mLST8, and pCMV-Tag3APHAS-I (FIG. 11A). After 18 h the cells were incubated for 1 h with increasing concentrations of FTS before extracts were prepared. A sample of each extract was subjected to SDS-PAGE and immunoblotted to detect PHAS-I or PThr^36/45. AU1-mTOR was also immunoprecipitated from each extract, and immune complexes were subjected to SDSPAGE and immunoblotted with mTAb2, to detect mTOR, and with anti-HA antibodies, to detect HA-mLST8 and HA-raptor. Nontransfected 293T cells were incubated with increasing concentrations of FTS for 1 h before extracts were prepared. mTOR was immunoprecipitated with mTAb1, and samples were subjected to SDS-PAGE.
(§3) FIGS. 12A & 12B represent data showing the effects of incubating cells with increasing concentrations of FTS and GTS on mTOR activity and mTOR association with raptor and mLST8. AU1-mTOR, HA-raptor, and HAmLST8 were overexpressed in 293T cells. The cells were then incubated for 1 h with increasing concentrations of FTS (●, ▴, ▪) or GTS (∘, Δ, □) before extracts were prepared. Immunoprecipitations were then conducted with anti-AU1 antibodies. mTOR kinase activity (●, ∘) was determined by measuring ^32P incorporation into [His^6]PHAS-I in immune complex kinases assays performed with [γ-^32P]ATP. The relative amounts of HA-raptor (▴, Δ) and HA-mLST8 (▪, □) that coimmunoprecipitated with AU1-mTOR were determined after immunoblotting with anti-HA antibodies. The results (mean values±S.E. from 3 experiments) are expressed as percentages of the mTOR activity (FIG. 12A) or coimmunoprecipitating proteins (FIG. 12B) from samples incubated without FTS or GTS, and have been corrected for the amounts of AU1-mTOR immunoprecipitated.
To investigate further the inhibitory effects of FTS on mTOR signaling, the effect of the drug on the association of mTOR, raptor, and mLST8 was determined. AU1-mTOR and HA-tagged forms of raptor and mLST8 were overexpressed in 293T cells, which were then incubated with increasing concentrations of FTS before AU1-mTOR was immunoprecipitated with anti-AU1 antibodies. Immunoblots were prepared with anti-HA antibodies to assess the relative amounts of HA-raptor and HA-mLST8 that coimmunoprecipitated with AU 1-mTOR (FIG. 11A).
Results obtained with overexpressed proteins are not necessarily representative of responses of endogenous proteins. Therefore, experiments were conducted to investigate the effect FTS on the endogenous TORC1 in nontransfected cells. […]

mTOR = molecular target: T1, mTOR (Rattus norvegicus, UniProt P42346); test: Immune complex assay of mTOR activity after incubating 293T cells with compound; format: cell-based; details: 293T cells incubated with 200 μM
T1 construct: expressed in transfected cells; host or cells: 293T
Protocol: as §3
FIG. 12A presents results of immune complex kinases assays with AU1-mTOR from extracts of 293T cells that had been incubated with increasing concentrations of FTS.
Immune complex assay of mTOR activity—AU1-mTOR was immunoprecipitated by using anti-AU1 antibody bound to protein G-agarose beads as described previously (McMahon, et al., (2002) Mol. Cell. Biol. 22, 7428-7438). Endogenous mTOR was immunoprecipitated in the same manner, except that mTAb1 was used instead of anti-AU1 antibody. To measure kinase activity, exhaustively washed immune complexes were suspended in 20 μl of Buffer A (50 mM NaCl, 0.1 mM EGTA, 1 mM dithiothreitol (DTT), […], 10 mM Na-HEPES, and 50 mM β-glycerophosphate, pH 7.4.). The kinase reactions were initiated by adding 20 μl of Buffer A supplemented with 2 mM [γ-^32P]ATP, 20 mM MnCl2 and 40 μg/ml of [His^6]PHAS-I. In experiments in which the effects of wortmannin were investigated, DTT was omitted from the reactions, and [His^6]PHAS-I that had been reduced and alkylated with N-ethylmaleimide was used as substrate. Reactions were terminated after 10 min at 30° by adding SDS sample buffer. Samples were subjected to SDS-PAGE and the relative amounts of ^32P incorporated into [His^6]PHAS-I were determined.

Shc = test: E2-induced Shc phosphorylation in MCF-7 cells; format: cell-based, human; details: 10^−10 M E2 for 3 minutes
Protocol: Because ERα, Shc and MAP kinase are all involved in E2 action in MCF-7 cells, upstream components responsible for Shc phosphorylation were determined by measuring the effects of PP2, ICI and PD98059 on E2-induced phosphorylation of Shc. In the presence of the inhibitors, MCF-7 cells were stimulated with vehicle or 10^−10 M E2 for 3 minutes and the status of Shc phosphorylation was examined. […] No effects of these inhibitors were apparent in the absence of E2 stimulation. […] Each of these inhibitors was capable of reducing the rate of cell proliferation in LTED cells.

CO[C@H]1C[C@@H]2CC[C@@H](C)[C@@](O)(O2)C(=O)C(=O)N2CCCC[C@H]2C(=O)O[C@H]([C@H](C)C[C@@H]2CC[C@@H](O)[C@H](OC)C2)CC(=O)[C@H](C)/C=C(\C)[C@@H](O)[C@@H](OC)C(=O)[C@H](C)C[C@H](C)/C=C/C=C/C=C/1C [rapamycin, reference compound]
EGF-induced ERK1/2 MAP kinase phosphorylation [1]: did not inhibit

C[C@]12CC[C@@H]3c4ccc(O)cc4CC[C@H]3[C@@H]1CC[C@@H]2O [estradiol, reference compound]
increase of [3H] thymidine incorporation compared to control level (MCF-7 cells [2]): 2.6 fold | increase of cell number compared with the vehicle control (MCF-7 cells [3]): 8 fold | concentration of maximal stimulation of MAP kinase phosphorylation (MAP kinase): 10^−10 M

O=c1c(-c2ccc(O)cc2)coc2cc(O)cc(O)c12 [genestein]
incorporation of tritiated thymidine into DNA (LTED cells): block tritiated thymidine uptake

CC[C@H](C)C(=O)O[C@H]1CCC=C2C=C[C@H](C)[C@H](CC[C@@H]3C[C@@H](O)CC(=O)O3)[C@H]21 [mevastatin]
incorporation of tritiated thymidine into DNA (LTED cells): block tritiated thymidine uptake

TGF alpha: growth factor used to activate MAP kinase in wild type MCF-7 cells
shift to the left of estradiol dose response for growth (MCF-7 cells [4]): two log shift to the left | shift to the left of estradiol dose response for growth (MCF-7 cells [4]; listed as TGF): 2 log

O=C([O-])c1ccccc1O.[Na+] [sodium salicylate, reference compound]
association of mTOR and raptor (mTOR-raptor complex): without effect | mTOR activity (mTOR): without effect

N#CC(=C(/N)Sc1ccccc1N)/C(C#N)=C(\N)Sc1ccccc1N [U 0126]
incorporation of tritiated thymidine into DNA (LTED cells): block the incorporation

CC(C)(C)n1nc(-c2ccc(Cl)cc2)c2c(N)ncnc21 [PP2]
E2-induced Shc phosphorylation (Shc): effectively inhibited

O=c1cc(N2CCOCC2)oc2c(-c3ccccc3)cccc12 [LY 294002, reference compound]
EGF-induced ERK1/2 MAP kinase phosphorylation [1]: did not inhibit
